{
  "source": "paper PMC11284787",
  "about": "“Ligand-Directed Labeling of the Adenosine A1 Receptor in Living Cells” (Journal of Medicinal Chemistry, 2024)",
  "test_system": "T1, SNAP-hA1AR",
  "T1 construct": "expressed in transfected cells; host or cells: HEK293T, transient transfection (FuGENE HD)",
  "experiment": "Live-cell confocal microscopy of SNAP-hA1AR HEK293T cells",
  "format": "cell-based, human",
  "settings": "for fluorescent labeling of SNAP-hA1AR at the plasma membrane: 125 nM 11 or 50 nM 12 (then MetTet-SulfoCy5) for 2 h; for labeling of SNAP-hA1AR after pretreatment with 10 μM DPCPX: 10 μM DPCPX pretreatment 30 min; for fluorescence intensity after 10 μM DPCPX added to prelabeled cells: prelabeled 2 h, then 10 μM DPCPX 1 h, P > 0.05",
  "excerpt": "Having investigated the molecular pharmacology of 11 and 12 in a series of in vitro assays, we sought to apply the LD probes for studying A1AR localization and dynamics in living cells. To this end, LD probes 11 and 12 were initially used in confocal microscopy studies to test their ability to label and allow visualization of the SNAP-hA1AR in living HEK293T cells (Figure 6). […] With both probes, the fluorescence labeling colocalized with SNAP-hA1AR labeled with AF488 (Figure 6A,C top frames).\nCells were labeled with membrane impermeable SNAP-AF488 for 30 min prior to treatment with 11 and 12 for 2 h, respectively, with the latter followed by the addition of 1 μM methyltetrazine (Met-Tet) SulfoCy5 for 5 min prior to the acquisition of the single equatorial images. […] For all the conditions, left-hand frames represent the SulfoCy5 channel (magenta), middle frames are the SNAP-hA1AR AF488 (green) channel, and right-hand frames represent merged images of both channels, with white indicating the overlap of magenta and green. (B, E) Fluorescence intensity plots (16-bit) were generated for both SulfoCy5 and AF488 channels by hand drawing the region of interest (ROI) in images obtained as indicated in (A) and (C) using ImageJ (FIJI). Data points represent membrane fluorescence signals measured from ROI drawn in each cell, and error bars represent mean ± standard deviation (SD). Images are representative of images obtained from three independent experiments from which 72 to 83 cells were analyzed. Scale bars are = 13 μm for (A) and 10 μm for (C). (D) Schematic representation of the biorthogonal IEDDA reaction between the TCO group (covalently attached to the hA1AR by ligand-directed chemistry) and SulfoCy5-conjugated methyltetrazine (MetTet-SulfoCy5). Following the click IEDDA reaction, the formation of the 4,5-dihydropyridazine cycloadduct increases the fluorescence intensity of the fluorophore conjugated to the tetrazine moiety. […]\nusing a Zeiss LSM880 confocal microscope as described in the confocal imaging […]\nHEK293T cells were seeded in 8-well plates (Nunc Lab-Tek, Thermo Fischer Scientific), pre-coated with Poly-D-Lysine, at 20,000 cells/well in DMEM/10% FCS.\n24 h post seeding, cells were transiently transfected with human SNAP-A1. Transient transfections were carried out following manufacturer’s protocol: used FuGENE HD at 3:1 ratio of reagent to cDNA with a total of 300 ng cDNA per well. Transfection solutions were made up in Gibco Opti-MEM (Thermo Fischer Scientific), incubated at RT for 5 min and added as 11 µL per well. Cells were incubated for additional 24 h at 37 OC, 5% CO2. On the day of the experiment medium was removed and the cells were labelled for 30 min at 37 °C with 0.2 µM SNAP-surface AF488 in SFM. After washing twice with SFM the cells were treated with or without 10 µM competitive A 1AR- […]\nFollowing the incubation step, the ligand-directed probe under investigation (SulfoCy5 or PEG-TCO) (11 or 12) was added to the appropriate wells at the required concentrations and incubated for 2 h. After that time, cells were washed 4x with warm HBSS, followed by the addition of 300 µL warm HBSS and imaged. For click-chemistry reactions, after washing 4x with warm HBSS, cells pre-labelled with the trans-cyclooctene-conjugated 12 (PEG-TCO) at 50 nM were subsequently treated with 1 µM Methyl-TetrazineSulfoCy5 (Lumiprobe, Germany) for 5 min at RT in the dark. Cells were washed 2x with warm HBSS and imaged. When […]\n1 h before imaging. […]\nLive cell imaging was performed using either a Zeiss LSM 710 or LSM880 laser scanning confocal microscope fitted with a Zeiss C-Apochromat 40 × 1.2 NA water immersion objective. A 633 nm HeNe laser was used for the excitation of SulfoCy5 fluorophore and a 488/561/633 dichroic, and the emission was detected between 634 […]\nand 755 nm. A 488 nm […] laser was used to excite SNAP-AF488 and the emission was detected between 493 and 586 nm. The pinhole diameter (1 Airy Unit; 1.1 μm […]",
  "data": [
    {"smiles": "CCCCn1c(=O)c2[nH]c(C34CCC(C(=O)NCCNC(=O)CCNC(=O)c5ccc(OC(=O)CCCCC[N+]6=C(/C=C/C=C/C=C7/N(C)c8ccc(S(=O)(=O)O)cc8C7(C)C)C(C)(C)c7cc(S(=O)(=O)[O-])ccc76)c(F)c5)(CC3)CC4)nc2n(CCCC)c1=O", "note": "[Compound 11, 1-(6-(4-((3-((2-(4-(1,3-Dibutyl-2,6-dioxo-2,3,6,7-tetrahydro-1H-purin-8-yl)bicyclo[2.2.2]octane-1-carboxamido)ethyl)amino)-3-oxopropyl)carbamoyl)-2-fluorophenoxy)-6-oxohexyl)-3,3-dimethyl-2-((1E,3E)-5-((E)-1,3,3-trimethyl-5-sulfoindolin-2-ylidene)penta-1,3-dien-1-yl)-3H-indol-1-ium-5-sulfonate]", "values": [
      {"measurement": "fluorescent labeling of SNAP-hA1AR at the plasma membrane", "result": "Clear fluorescent labeling"},
      {"measurement": "labeling of SNAP-hA1AR after pretreatment with 10 μM DPCPX", "result": "prevented the labeling"},
      {"measurement": "fluorescence intensity after 10 μM DPCPX added to prelabeled cells", "result": "did not change their fluorescence intensities"}
    ]},
    {"smiles": "CCCCn1c(=O)c2[nH]c(C34CCC(C(=O)NCCNC(=O)CCNC(=O)c5ccc(OC(=O)CCC(=O)NCCOCCOCCNC(=O)O[C@H]6CC/C=C/CCC6)c(F)c5)(CC3)CC4)nc2n(CCCC)c1=O", "note": "[Compound 12, 4-((3-((2-(4-(1,3-Dibutyl-2,6-dioxo-2,3,6,7-tetrahydro-1H-purin-8-yl)bicyclo[2.2.2]octane-1-carboxamido)ethyl)amino)-3-oxopropyl)carbamoyl)-2-fluorophenyl (R,E)-1-(Cyclooct-4-en-1-yloxy)-1,12-dioxo-5,8-dioxa-2,11-diazapentadecan-15-oate]", "values": [
      {"measurement": "fluorescent labeling of SNAP-hA1AR at the plasma membrane", "result": "Clear fluorescent labeling"},
      {"measurement": "labeling of SNAP-hA1AR after pretreatment with 10 μM DPCPX", "result": "prevented the labeling"},
      {"measurement": "fluorescence intensity after 10 μM DPCPX added to prelabeled cells", "result": "did not change their fluorescence intensities"}
    ]}
  ]
}
